Test results: article PMC10189451, “Palmitic acid‐ and cysteine‐functionalized nanoparticles overcome mucus and epithelial barrier for oral delivery of drug” (Bioengineering & Translational Medicine, 2023)

Tests used:
[1] = Pharmacokinetic study after oral administration; format: in vivo, SD rats
Method: Nine male SD rats were randomly divided into three groups (n = 3). […] Moreover, 500 μL of blood was taken before administration, and 300 μL of blood was taken from the heart at 0.25, 0.5, 1, 2, 4, 6, 9, 12, and 24 h after administration. The plasma samples were centrifuged at 3000 r/min for 10 min. Subsequently, 100 μL of plasma was mixed with 10 μL methanol containing internal standard (rheum emodin, 20 μg/mL). After vortexing for 3 min, 250 μL ethyl acetate was added, and the mixture was centrifuged at 3000 r/min for 10 min. The extraction residue was reconstituted in 100 μL of mobile phase and determined by HPLC. The mobile phase was a mixture of acetonitrile: water (containing 2% acetic acid) (52:48, v/v), the flow rate was 1 mL/min, and the detection wavelength was 426 nm. Pharmacokinetic parameters were calculated using PK SOLVER for the noncompartmental model.

HT29‐MTX = test: Cellular uptake of the NPs loaded with CUR (CLSM, HPLC); format: cell-based; details: CUR 5–20 μg/mL, 2 and 4 h, CLSM fluorescence / HPLC
Method: HT29‐MTX was seeded in the 12‐well plate with 2 × 10^5 cells/well and incubated overnight. […] After co‐incubation for prescribed time intervals (2 and 4 h), the cells were cleaned with PBS and lysed by 1% Triton X‐100 at 4°C. […] The cellular uptake efficiency was calculated using Formula (11). In addition, after fixation with 4% paraformaldehyde, the HT29‐MTX stained with Hoechst 33342 were observed by CLSM. (11) Cellular uptake%=Cellular intake ofCUR/Total amount ofCURadded×100.
HT29-MTX was seeded in the 12-well plate with 2×10^5 cells/well and incubated overnight. […] After co-incubation for prescribed time intervals (2 and 4 h), the cells were cleaned with PBS and lysed by 1% Triton X-100 at 4 ℃. […] In addition, the HT29-MTX stained with Hoechst 33342 were observed by CLSM.

[2] = In vivo absorption in ligated small intestinal loops (CLSM); details: SD rats, 2 h
Method: In vivo transportation of the FITC‐labeled PA‐N‐2‐HACC NPs and FITC‐labeled PA‐N‐2‐HACC‐Cys NPs through the epithelial mucosa was qualitatively analyzed using […] in vivo absorption study.[69] Male SD rats (6–8 weeks, 230–250 g) were anesthetized by chloral hydrate, and 2‐cm sections of small intestinal loops were ligated at both ends. Then, 100 μL of 1 mg/mL FITC‐labeled PA‐N‐2‐HACC NPs and PA‐N‐2‐HACC‐Cys NPs were administered into different intestinal loops of the same SD rats (n = 3). […] After 2 h, the rats were sacrificed, and the loops treated with the FITC‐labeled NPs were withdrawn and washed with PBS (pH = 7.4). After fixation in 4% paraformaldehyde for 4 h and dehydration in 30% sucrose overnight, the loops were embedded in optimal cutting temperature compound and sectioned into 10‐μm slices using a freezing microtome (Leica CM1860, Wetzlar, Germany). Cell nuclei were stained with Hoechst 33342 for 10 min and visualized using CLSM.
All the animal care and experimental protocols were in accordance with the “National Research Council's Guide for the Care and Use of Laboratory Animals”. Male SD rats (6-8 weeks, 230-250 g) were anesthetized by chloral hydrate, and 2 cm sections of small intestinal loops were ligated at both ends. […]

DSS‐induced colitis = test: Efficacy on DSS‐induced colitis mice; format: in vivo, BALB/c mice; details: daily oral 7 days, CUR 50 mg/kg
Method: Male BALB/c mice (6–8 weeks, 20–25 g) were randomly divided into five groups with eight mice in each group after 1 week of acclimation. Except for the normal control group, the remaining four groups were given 3% DSS instead of ordinary drinking water for 7 days, during which they were fed normally to establish the mice colitis model. […] The body weight of the mice was recorded every day, and DAI was measured to assess the severity of the colitis according to body weight loss, character of stool, and the degree of hematochezia (Table 3).
After treatment with different formulas, the mice were sacrificed after anesthesia, the colon length was measured, and the colon tissue was fixed with 10% formalin and stained with hematoxylin and eosin (H&E) for pathological examination. To count colonic goblet cells, fixed colonic tissues were also stained using Alcian blue. […]
In addition, a portion of collected colon tissue (50 mg) was homogenized with RIPA lysis buffer (Thermo Fisher, Shanghai, China) to extract total proteins. […] The protein content of supernatant was quantified using a bicinchoninic acid (BCA) protein assay kit (Thermo Fisher, Shanghai, China). The concentration of pro‐inflammatory cytokines such as TNF‐α and IL‐1β was measured by ELISA kit (Enzyme‐linked Biotechnology Co., Ltd., China).

[3] = Cytotoxicity assay (CCK‐8) on HepG‐2; format: cell-based; details: human, HepG-2 cells; read-out: Cell viability of HepG‐2
Method: HT29‐MTX and HepG‐2 were cultured in RPMI medium and MEM, respectively, supplemented with 10% fetal bovine serum, 1% (v/v) penicillin, and streptomycin. HT29‐MTX or HepG‐2 were seeded (100 μL) into a 96‐well plate at a cell density of 1 × 10^4 cells/well. […] After co‐incubation for 24 h, the cytotoxicity was analyzed by CCK‐8 assay (Cell Counting Kit‐8, Beyotime).

[4] = male, SD, rat, plasma, po, 50 mg/kg

CL ([1]; SD rats, oral, CUR dose 50 mg/kg, n = 3): 782.7 ± 18.7 mL/min/kg | Cmax [1, 4]: 41 ± 10 ng/mL | MRT [1, 4]: 4.71 ± 0.48 h | Tmax [1, 4]: 1 h | half-life [1, 4]: 3.27 ± 0.32 h | AUC ([1]; male, SD, rat, plasma, po, 50 mg/kg, read-out: AUC0‐∞): 252 ± 110 ng·h/mL | Fluorescence signal in intestinal tissue (in vivo absorption, in words) [2]: weak green fluorescence signal
SMILES: COc1cc(/C=C/C(=O)CC(=O)/C=C/c2ccc(O)c(OC)c2)ccc1O [CUR, Curcumin]
Cellular uptake of CUR in HT29‐MTX (in words) (HT29‐MTX): weak fluorescence intensity | Clinical symptoms (body weight loss, colon length shortening, DAI increase) (DSS‐induced colitis): significantly improved | Colonic epithelial mucosa / goblet cells (Alcian blue staining) (DSS‐induced colitis): relieved the damage caused by DSS | viability at 24 h, 12.5 μg/mL [3]: 77.5%
